The results in this text go back to PubChem BioAssay AID256 (DTP/NCI, 2004).

This test has as its system CD2F1 mice, L1210 leukemia ip, survival T/C. The test is described as follows: NCI In Vivo Anticancer Drug Screen. Data for tumor model L1210 Leukemia (intraperitoneal) in CD2F1 (CDF1) mice. The note with it: higher = longer survival. The gist of the method:
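Antitumor effect is scored in animals hosting a serially transplanted tumor. Values compare compound-dosed animals against vehicle-only controls as a simple quotient.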

Where [1] appears, read: endpoint: mean survival time, dose: 100.0 mg/kg/injection, schedule: Q04DX003 (ip), vehicle: saline with Tween-80.
[2] abbreviates: endpoint: mean survival time, dose: 200.0 mg/kg/injection, schedule: Q04DX003 (ip), vehicle: saline with Tween-80.
[3] abbreviates: endpoint: mean survival time, dose: 400.0 mg/kg/injection, schedule: Q04DX003 (ip), vehicle: saline with Tween-80.
[4] abbreviates: endpoint: mean survival time, dose: 50.0 mg/kg/injection, schedule: Q01DX009 (ip), vehicle: saline with Tween-80.
The mark [5] stands for this setting: endpoint: mean survival time, dose: 100.0 mg/kg/injection, schedule: Q01DX009 (ip), vehicle: saline with Tween-80.
Setting [6] is: endpoint: mean survival time, dose: 200.0 mg/kg/injection, schedule: Q01DX009 (ip), vehicle: saline with Tween-80.
The mark [7] stands for this setting: endpoint: mean survival time, dose: 400.0 mg/kg/injection, schedule: Q01DX009 (ip), vehicle: saline with Tween-80.

Values joined by “and” are separate entries in the source; they are usually repeats but may differ in a detail not shown here. Equal values may be shown once. Toxic doses and inconclusive results are not listed.

Consider `O=C(O)CCCCCSc1nn(C2OC(CO)C(O)C2O)c(=O)[nH]c1=O` (centres undefined), for which the T/C (endpoint: mean survival time, dose: 12.5 mg/kg/injection, schedule: Q01DX005 (ip), vehicle: distilled water + Tween-80) is 112 % of control; the T/C (endpoint: mean survival time, dose: 25.0 mg/kg/injection, schedule: Q01DX005 (ip), vehicle: distilled water + Tween-80) is 104 % of control; the T/C (endpoint: mean survival time, dose: 50.0 mg/kg/injection, schedule: Q01DX005 (ip), vehicle: distilled water + Tween-80) was 104 % of control; the T/C (endpoint: mean survival time, dose: 100.0 mg/kg/injection, schedule: Q01DX005 (ip), vehicle: distilled water + Tween-80) was 104 % of control; the T/C (endpoint: mean survival time, dose: 200.0 mg/kg/injection, schedule: Q01DX005 (ip), vehicle: distilled water + Tween-80) was 104 % of control.

For `CCOC(=O)Nc1cc(N)c2ncc(-c3ccc(Cl)cc3)nc2n1`, the T/C is 91 % of control under setting [1], 91 % of control under setting [2] and 95 % of control under setting [3].

As for `COc1ccc2c(c1O)-c1cc(O)cc3c1C(C2)N(CCCl)CC3` (centres undefined), the T/C (endpoint: mean survival time, dose: 3.13 mg/kg/injection, schedule: Q04DX003 (ip), vehicle: water) was 104 % of control; the T/C (endpoint: mean survival time, dose: 6.25 mg/kg/injection, schedule: Q04DX003 (ip), vehicle: water) was 102 % of control; the T/C (endpoint: mean survival time, dose: 12.5 mg/kg/injection, schedule: Q04DX003 (ip), vehicle: water) was 105 % of control; the T/C (endpoint: mean survival time, dose: 25.0 mg/kg/injection, schedule: Q04DX003 (ip), vehicle: DMSO) was 102 % of control; the T/C (endpoint: mean survival time, dose: 25.0 mg/kg/injection, schedule: Q04DX003 (ip), vehicle: water) was 100 % of control; the T/C (endpoint: mean survival time, dose: 50.0 mg/kg/injection, schedule: Q04DX003 (ip), vehicle: water) was 88 % of control.

In the case of `Oc1ccc(CCCl)cc1`, the T/C under setting [4] was 91 % of control, the T/C under setting [5] is 102 % of control and the T/C under setting [6] is 102 % of control.

With `O=C1c2ccccc2C(=O)c2c1cccc2N1CCOCC1`, the T/C reads like this: (endpoint: mean survival time, dose: 25.0 mg/kg/injection, schedule: Q04DX002 (ip), vehicle: Klucel (hydroxypropylcellulose) (HPC)) 96 % of control; (endpoint: mean survival time, dose: 50.0 mg/kg/injection, schedule: Q04DX002 (ip), vehicle: Klucel (hydroxypropylcellulose) (HPC)) 102 % of control; (endpoint: mean survival time, dose: 100.0 mg/kg/injection, schedule: Q04DX002 (ip), vehicle: Klucel (hydroxypropylcellulose) (HPC)) 102 % of control; (endpoint: mean survival time, dose: 200.0 mg/kg/injection, schedule: Q04DX002 (ip), vehicle: Klucel (hydroxypropylcellulose) (HPC)) 96 % of control.

In the case of `O=[N+]([O-])O.[NH2-].[NH2-].[NH2-].[NH2-].[OH-].[OH-].[Pt+4].[Pt+4]`, the T/C (endpoint: mean survival time, dose: 2.5 mg/kg/injection, schedule: Q04DX003 (ip), vehicle: water) is 89 % of control; the T/C (endpoint: mean survival time, dose: 5.0 mg/kg/injection, schedule: Q04DX003 (ip), vehicle: water) was 97 % of control; the T/C (endpoint: median survival time, dose: 0.15 mg/kg/injection, schedule: Q04DX003 (ip), vehicle: water) was 97 % of control; the T/C (endpoint: median survival time, dose: 0.31 mg/kg/injection, schedule: Q04DX003 (ip), vehicle: water) is 97 % of control.

Consider `O=S(=O)(OCCCCCOS(=O)(=O)c1cccnc1)c1cccnc1`, for which the T/C was 95 % of control (endpoint: mean survival time, dose: 10.0 mg/kg/injection, schedule: Q04DX002 (ip), vehicle: saline with Tween-80) and 98 % of control (endpoint: mean survival time, dose: 40.0 mg/kg/injection, schedule: Q04DX002 (ip), vehicle: saline with Tween-80).

In the case of `Cc1csc2ncnc(N)c12`, the T/C (endpoint: mean survival time, dose: 100.0 mg/kg/injection, schedule: Q01DX001 (ip), vehicle: saline with Tween-80) is 100 % of control; the T/C (endpoint: mean survival time, dose: 200.0 mg/kg/injection, schedule: Q01DX001 (ip), vehicle: saline with Tween-80) is 92 % of control; the T/C (endpoint: mean survival time, dose: 400.0 mg/kg/injection, schedule: Q01DX001 (ip), vehicle: saline with Tween-80) is 101 % of control.

`Cc1ccc(NC(=O)OCCOc2ccc([N+](=O)[O-])cc2)c(C)c1`: the T/C is, setting by setting: under setting [4], 93 % of control; under setting [5], 98 % of control; under setting [6], 89 % of control.

`C1CCc2nnnn2CC1`: the T/C (endpoint: mean survival time, dose: 12.5 mg/kg/injection, schedule: Q01DX009 (ip), vehicle: saline) is 98 % of control; the T/C (endpoint: mean survival time, dose: 25.0 mg/kg/injection, schedule: Q01DX009 (ip), vehicle: saline) was 103 % of control; the T/C (endpoint: mean survival time, dose: 50.0 mg/kg/injection, schedule: Q01DX009 (ip), vehicle: saline) was 95 % of control.

Consider `c1ccc(C[N+]23CCN(CC2)CC3)cc1`, for which the T/C by setting is: (endpoint: mean survival time, dose: 12.5 mg/kg/injection, schedule: Q04DX003 (ip), vehicle: saline) 98 % of control; (endpoint: mean survival time, dose: 25.0 mg/kg/injection, schedule: Q04DX003 (ip), vehicle: saline) 98 % of control; (endpoint: mean survival time, dose: 50.0 mg/kg/injection, schedule: Q04DX003 (ip), vehicle: saline) 101 % of control.

Regarding `NC(=O)c1csc(NC2OC(CO)C(O)C(O)C2O)n1` (centres undefined), the T/C is, setting by setting: (endpoint: mean survival time, dose: 12.5 mg/kg/injection, schedule: Q01DX005 (ip), vehicle: water) 98 % of control; (endpoint: mean survival time, dose: 25.0 mg/kg/injection, schedule: Q01DX005 (ip), vehicle: water) 96 % of control; (endpoint: mean survival time, dose: 50.0 mg/kg/injection, schedule: Q01DX005 (ip), vehicle: water) 101 % of control; (endpoint: mean survival time, dose: 100.0 mg/kg/injection, schedule: Q01DX005 (ip), vehicle: water) 96 % of control; (endpoint: mean survival time, dose: 200.0 mg/kg/injection, schedule: Q01DX005 (ip), vehicle: water) 98 % of control.

With `N#Cc1ccc2cn[nH]c2c1`, the T/C by setting is: under setting [5], 98 % of control; under setting [6], 96 % of control; under setting [7], 92 % of control.

As for `O=[N+]([O-])c1cccc(S(=O)(=O)Oc2ccc(-c3ccccc3)cc2)c1`, the T/C runs as follows: under setting [5], 87 % of control; under setting [6], 91 % of control; under setting [7], 89 % of control.

Turning to `O=C(NS(=O)(=O)c1ccc(Cl)cc1)OCCCl`, the T/C reads like this: under setting [5], 96 % of control; under setting [1], 97 % of control; under setting [6], 96 % of control; under setting [2], 97 % of control; under setting [3], 102 % of control.

For `COc1cc(C(C2=C(O)c3ccccc3C(=O)C2=O)C2=C(O)c3ccccc3C(=O)C2=O)cc(Br)c1O`, the T/C by setting is: (endpoint: mean survival time, dose: 100.0 mg/kg/injection, schedule: Q01DX009 (ip), vehicle: alcohol) 101 % of control; (endpoint: mean survival time, dose: 200.0 mg/kg/injection, schedule: Q01DX009 (ip), vehicle: alcohol) 93 % of control.

As for `NCc1cn(C2OC(CO)C(O)C2O)c2nc[nH]c(=O)c12` (centres undefined), the T/C (endpoint: mean survival time, dose: 25.0 mg/kg/injection, schedule: Q01DX009 (ip), vehicle: distilled water + Tween-80) was 103 % of control; the T/C (endpoint: mean survival time, dose: 50.0 mg/kg/injection, schedule: Q01DX009 (ip), vehicle: distilled water + Tween-80) was 103 % of control; the T/C (endpoint: mean survival time, dose: 100.0 mg/kg/injection, schedule: Q01DX009 (ip), vehicle: distilled water + Tween-80) is 101 % of control; the T/C (endpoint: mean survival time, dose: 200.0 mg/kg/injection, schedule: Q01DX009 (ip), vehicle: distilled water + Tween-80) is 98 % of control; the T/C (endpoint: mean survival time, dose: 400.0 mg/kg/injection, schedule: Q01DX009 (ip), vehicle: distilled water + Tween-80) was 115 % of control.

As to `CCCCNS(=O)(=O)c1cn(CCCC)c(=O)[nH]c1=O`, the T/C (endpoint: mean survival time, dose: 37.5 mg/kg/injection, schedule: Q01DX001 (ip), vehicle: saline with Tween-80) was 100 % of control; the T/C (endpoint: mean survival time, dose: 150.0 mg/kg/injection, schedule: Q01DX001 (ip), vehicle: saline with Tween-80) is 96 % of control; the T/C (endpoint: mean survival time, dose: 175.0 mg/kg/injection, schedule: Q01DX001 (ip), vehicle: saline with Tween-80) is 100 % of control.

On to `CCC(/C=N/N=C(N)N)=N\N=C(N)N`, for which the T/C is, setting by setting: (endpoint: mean survival time, dose: 15.0 mg/kg/injection, schedule: Q01DX010 (ip), vehicle: saline) 95 % of control; (endpoint: mean survival time, dose: 60.0 mg/kg/injection, schedule: Q01DX010 (ip), vehicle: saline) 101 % of control.

Consider `COc1cccc(CN2CCN(N)CC2)c1`, for which the T/C is, setting by setting: (endpoint: mean survival time, dose: 12.5 mg/kg/injection, schedule: Q01DX009 (ip), vehicle: Klucel (hydroxypropylcellulose) (HPC)) 98 % of control; (endpoint: mean survival time, dose: 25.0 mg/kg/injection, schedule: Q01DX009 (ip), vehicle: Klucel (hydroxypropylcellulose) (HPC)) 97 % of control; (endpoint: mean survival time, dose: 50.0 mg/kg/injection, schedule: Q01DX009 (ip), vehicle: Klucel (hydroxypropylcellulose) (HPC)) 97 % of control; (endpoint: mean survival time, dose: 100.0 mg/kg/injection, schedule: Q01DX009 (ip), vehicle: Klucel (hydroxypropylcellulose) (HPC)) 92 % of control; (endpoint: mean survival time, dose: 200.0 mg/kg/injection, schedule: Q01DX009 (ip), vehicle: Klucel (hydroxypropylcellulose) (HPC)) 97 % of control.

For `CC([NH-])CC(C)[NH-].[Br][Pt+2][Br]` (centres undefined), the T/C by setting is: (endpoint: mean survival time, dose: 3.12 mg/kg/injection, schedule: Q04DX003 (ip), vehicle: saline with Tween-80) 120 % of control and 124 % of control; (endpoint: mean survival time, dose: 12.5 mg/kg/injection, schedule: Q04DX003 (ip), vehicle: saline with Tween-80) 150 % of control.
